Here are results for four molecules from ChEMBL document CHEMBL4196243, “Antileishmanial Carbasugars from Geosmithia langdonii” (J Nat Prod, 2018).

The structures appear in SMILES notation. Some results are limits rather than exact numbers.

The test system of the test is Leishmania donovani. The test is described as follows: Antileishmanial activity against Leishmania donovani promastigotes by alamar blue dye based fluorescence assay. In kind it is functional, organism-based.
With `C[C@@H]1C[C@H](OC(=O)c2cc(O)ccc2O)[C@H](O)[C@H](O)[C@@H]1O`, the IC50 came out at 100 µM and the IC90 is > 134 µM. The matching figures for `C[C@@H]1C[C@H](O)[C@H](O)[C@H](O)[C@@H]1OCc1cc(O)ccc1O`: 57 µM and 119 µM. As for `C[C@@H]1[C@H](O)[C@@H](C)/C=C/C=C/C=C/C=C/C=C/C=C/C=C/[C@H](O[C@@H]2O[C@H](C)[C@@H](O)[C@H](N)[C@@H]2O)C[C@@H]2O[C@](O)(C[C@@H](O)C[C@@H](O)[C@H](O)CC[C@@H](O)C[C@@H](O)CC(=O)O[C@H]1C)C[C@H](O)[C@H]2C(=O)O` [AMPHOTERICIN B], the IC90 was determined as 0.4 µM. `N=C(N)c1ccc(OCCCCCOc2ccc(C(=N)N)cc2)cc1` [PENTAMIDINE]: the half-maximal inhibitory concentration (IC50) is 9 µM and it took 17 µM to reach the 90% level (IC90).

Usually IC50 stands for the concentration that inhibits the measured activity by half. Lower therefore signals higher potency. A word on the IC90: it is the point of the concentration-response curve where the effect stands at 90%.
